Measurements reported in patent US8415351B2 (priority 2007, dated 2013).

Experiments:
[1] = tested on: genotype 1b-Con1 subgenomic replicon cell line; assay: microbe, parasite or virus in culture; assay type: cell-based, HCV; conditions: Hepatitis C virus, read-out: EC50 1b
[2] = tested on: genotype 1a-H77 subgenomic replicon cell line; assay: microbe, parasite or virus in culture; assay type: cell-based, HCV; conditions: Hepatitis C virus, read-out: EC50 1a
[3] = target: T1, HCV polymerase 1A (Δ21 NS5B, H77) (Hepatitis C virus genotype 1a, UniProt P27958); assay: biochemical; conditions: IC50 1a
T1 construct: 20 to 50 nM Δ21 NS5B
Summary of the method: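 Radiometric assay with Δ21 NS5B (H77): 20 μM CTP, 20 μM ATP, 1 μM ^3H-UTP, 5 nM template RNA, 2–4 h at room temperature. RNA precipitated with spermine, filter-captured and counted. IC50 from non-linear fit of retained cpm vs inhibitor concentration (tight-binding equation).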

[4] = target: T2, HCV polymerase 1B (Δ21 NS5B, BK) (Hepatitis C virus genotype 1b, UniProt P26663); assay: biochemical
T2 construct: 20 to 50 nM Δ21 NS5B
Summary of the method: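 Δ21 NS5B (genotype 1b, BK […]) preincubated 15 min RT with inhibitor, 2 mM MnCl2, pH 7.4, 60–125 μM GTP; started with 20 μM CTP/ATP, 1 μM 3H-UTP, 5 nM template RNA, run 2–4 h RT. Spermine-precipitated RNA filter-captured, scintillation counted; IC50 from tight-binding (Morrison) fit.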

T2 sequence (P26663 2420-2989, stated change not applied): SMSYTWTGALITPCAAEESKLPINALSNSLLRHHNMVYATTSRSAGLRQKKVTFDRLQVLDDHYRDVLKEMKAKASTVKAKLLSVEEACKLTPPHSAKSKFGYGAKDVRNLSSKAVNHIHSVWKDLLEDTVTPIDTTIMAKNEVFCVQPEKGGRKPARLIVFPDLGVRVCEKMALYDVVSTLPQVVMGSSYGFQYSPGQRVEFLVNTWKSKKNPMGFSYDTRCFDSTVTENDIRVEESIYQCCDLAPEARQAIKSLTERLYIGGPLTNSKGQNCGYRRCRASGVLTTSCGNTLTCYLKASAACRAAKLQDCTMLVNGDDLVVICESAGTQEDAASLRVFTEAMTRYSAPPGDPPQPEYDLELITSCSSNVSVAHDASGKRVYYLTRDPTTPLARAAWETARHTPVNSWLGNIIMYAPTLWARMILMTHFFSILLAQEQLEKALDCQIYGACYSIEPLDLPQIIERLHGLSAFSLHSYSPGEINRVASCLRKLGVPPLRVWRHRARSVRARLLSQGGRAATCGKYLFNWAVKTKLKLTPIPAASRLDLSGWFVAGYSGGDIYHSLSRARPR
T1 sequence (P27958 2421-2990, stated change not applied): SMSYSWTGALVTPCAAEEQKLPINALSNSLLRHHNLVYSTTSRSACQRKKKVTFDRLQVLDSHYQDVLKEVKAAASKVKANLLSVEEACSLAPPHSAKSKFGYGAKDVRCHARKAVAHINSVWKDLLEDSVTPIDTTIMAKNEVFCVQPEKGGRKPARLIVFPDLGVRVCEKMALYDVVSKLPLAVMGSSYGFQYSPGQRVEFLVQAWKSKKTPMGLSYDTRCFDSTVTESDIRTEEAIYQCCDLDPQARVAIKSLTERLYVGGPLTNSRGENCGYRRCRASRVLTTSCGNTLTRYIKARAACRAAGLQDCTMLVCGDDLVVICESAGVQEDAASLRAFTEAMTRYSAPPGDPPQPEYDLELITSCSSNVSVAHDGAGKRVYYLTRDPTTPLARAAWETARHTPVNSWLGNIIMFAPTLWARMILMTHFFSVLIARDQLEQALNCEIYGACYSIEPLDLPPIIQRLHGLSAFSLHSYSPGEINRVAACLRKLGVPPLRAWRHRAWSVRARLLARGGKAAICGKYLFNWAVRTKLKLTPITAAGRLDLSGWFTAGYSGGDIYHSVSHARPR

Structure (SMILES)	EC50 [1] [nM]	EC50 [2] [nM]	IC50 [3] [nM]	IC50 [4] [nM]
COc1c(CNc2ccc(NS(C)(=O)=O)cc2)cc(N2CCC(=O)NC2=O)cc1C(C)(C)C [IA-L9-1.4, N-(4-(3-tert-butyl-5-(2,4-dioxotetrahydropyrimidin-1(2H)-yl)-2-methoxybenzylamino)phenyl)methanesulfonamide]	100 to 1000	> 1000	10 to 100	100 to 1000
COc1c(C(=O)Cc2ccc(NS(C)(=O)=O)cc2)cc(N2CCC(=O)NC2=O)cc1C(C)(C)C [IA-L11-1.1, N-(4-(2-(3-tert-butyl-5-(2,4-dioxotetrahydropyrimidin-1(2H)-yl)-2-methoxyphenyl)-2-oxoethyl)phenyl)methanesulfonamide]	10 to 100	100 to 1000	10 to 100	10 to 100
COc1c(CC(=O)c2ccc(NS(C)(=O)=O)cc2)cc(N2CCC(=O)NC2=O)cc1C(C)(C)C [IA-L12-1.1, N-(4-(2-(3-tert-butyl-5-(2,4-dioxotetrahydropyrimidin-1(2H)-yl)-2-methoxyphenyl)acetyl)phenyl)methanesulfonamide]	10 to 100	100 to 1000	10 to 100	10 to 100
COc1c(-c2ccc(/C=N/NS(C)(=O)=O)cc2)cc(-n2ccc(=O)[nH]c2=O)cc1C(C)(C)C [IB-L0-1.1, (E)-N′-((3′-tert-butyl-5′-(2,4-dioxo-3,4-dihydropyrimidin-1(2H)-yl)-2′-methoxybiphenyl-4-yl)methylene)methanesulfonohydrazide]	10 to 100	10 to 100	< 10	< 10
COc1c(-c2ccc(NS(C)(=O)=O)cc2)cc(-n2ccc(=O)[nH]c2=O)cc1C(C)(C)C [IB-L0-1.2, N-(3′-tert-butyl-5′-(2,4-dioxo-3,4-dihydropyrimidin-1(2H)-yl)-2′-methoxybiphenyl-4-yl)methanesulfonamide]	> 1000	> 1000	100 to 1000	100 to 1000
COc1c(-c2ccc(/C=N/NS(C)(=O)=O)c(F)c2)cc(-n2ccc(=O)[nH]c2=O)cc1C(C)(C)C [IB-L0-1.3, (E)-N′-((3′-tert-butyl-5′-(2,4-dioxo-3,4-dihydropyrimidin-1(2H)-yl)-3-fluoro-2′-methoxybiphenyl-4-yl)methylene)methanesulfonohydrazide]	10 to 100	100 to 1000	10 to 100	10 to 100
COc1c(-c2ccc(CCNS(C)(=O)=O)cc2)cc(-n2ccc(=O)[nH]c2=O)cc1C(C)(C)C [IB-L0-1.4, N-(2-(3′-tert-butyl-5′-(2,4-dioxo-3,4-dihydropyrimidin-1(2H)-yl)-2′-methoxybiphenyl-4-yl)ethyl)methanesulfonamide]	10 to 100	100 to 1000	10 to 100	10 to 100
COc1c(-c2ccc(/C(C)=N/NS(C)(=O)=O)cc2)cc(-n2ccc(=O)[nH]c2=O)cc1C(C)(C)C [IB-L0-1.5, (E)-N′-(1-(3′-tert-butyl-5′-(2,4-dioxo-3,4-dihydropyrimidin-1(2H)-yl)-2′-methoxybiphenyl-4-yl)ethylidene)methanesulfonohydrazide]	10 to 100	10 to 100	10 to 100	10 to 100
COc1ccc(-c2cc(-n3ccc(=O)[nH]c3=O)cc(C(C)(C)C)c2OC)cc1/C=N/NS(C)(=O)=O [IB-L0-1.6, (E)-N′-((3′-tert-butyl-5′-(2,4-dioxo-3,4-dihydropyrimidin-1(2H)-yl)-2′,4-dimethoxybiphenyl-3-yl)methylene)methanesulfonohydrazide]	100 to 1000	> 1000	100 to 1000	100 to 1000
COc1c(-c2ccc(NC(=O)NS(C)(=O)=O)cc2)cc(-n2ccc(=O)[nH]c2=O)cc1C(C)(C)C [IB-L0-1.7, N-(3′-tert-butyl-5′-(2,4-dioxo-3,4-dihydropyrimidin-1(2H)-yl)-2′-methoxybiphenyl-4-ylcarbamoyl)methanesulfonamide]	100 to 1000	> 1000	10 to 100	10 to 100
